Laboratory results published in patent US20210212984A1, “FORMULATION FOR PAIN MANAGEMENT” (Zyus Life Sciences Inc., priority 2019, published 2021).
Several values for one entry are separate records, joined by “and”; a condition that tells them apart may be missing. Equal entries are not always repeated. Where two headings read alike, the source gives them in different places.

Tests used:
human TRPA1 channel = target: T1, human TRPA1 channel (Homo sapiens, UniProt O75762); assay: ScreenPatch assay (IonWorks Barracuda), agonist mode, TRPA1 expressed in CHO cells; assay type: cell-based; details: for EC50: read-out: EC50, CBC CRC
T1 construct: expressed in transfected cells; host or cells: CHO cells
Protocol: Formulations for pain management were tested for effects on the human TRPA1 channel, expressed in mammalian cells using the ScreenPatch® assay (IonWorks™ Barracuda Based Assay): agonist mode. The data presented confirming a synergistic effect of cannabinoids (CBD:THC:CBC) at the ion channel level.
Test Articles. The test articles, also referenced herein as test formulations, were evaluated in an 8-point concentration-response format (4 replicate wells/concentration, Table 4A & Table 4B). The test articles were dissolved and initially serially diluted in dimethyl sulfoxide (DMSO). The final dilution was made in extracellular solution. The final DMSO concentration was 0.6% (v/v).
Positive Control Treatment Groups. Stock solutions of positive control articles were prepared in batches, aliquoted for individual use. The positive control test solutions were prepared fresh on the day of experiment. The final DMSO concentration was 0.6% (v/v). […] Reference antagonist, ruthenium red (0-10 μM), was used for both TRPA1.
Test System: TRPA1 ionotropic receptors expressed in CHO cells.
Test Platform: Ionworks Barracuda™
Electrophysiological Procedures. Intracellular solution (mM): 50 mM CsCl, 90 mM CsF, 2 mM MgCl2, 5 mM EGTA, 10 mM HEPES. Adjusted to pH 7.2 with CsOH. This solution was prepared in batches and stored at room temperature. In preparation for a recording session, the intracellular solution was loaded into the intracellular compartment of the PPC planar electrode.
Extracellular solution, HB-PS (composition in mM): NaCl, 137; KCl, 1.0; MgCl2, 2; CaCl2, 2; HEPES, 10; Glucose, 10; pH adjusted to 7.4 with NaOH (refrigerated until use). Holding potential: −70 mV, potential during agonist/antagonist application: −70 mV.
Recording procedure. Extracellular buffer was loaded into the PPC plate wells (11 μL per well). Cell suspension was pipetted into the wells (9 μL per well) of the PPC planar electrode.
Whole-cell recording configuration was established via patch perforation with membrane currents recorded by on-board patch clamp amplifiers.
Single application (scan) protocol was used.
Test Article Administration. The application consisted of the addition of 20 μL of 2× concentrated test article solution at 10 μL/s (2 second total application time).
TRPA1 Positive Control—Agonist.
Positive Control—Antagonist. 0-10 μM Ruthenium Red (8 concentrations, 4 replicates, half log scale).

CB1 receptors = CB1 receptors (Homo sapiens, UniProt P21554); details: Shinjyo N 2013; cited from earlier work
CB2 receptors = CB2 receptors (Homo sapiens, UniProt P34972); details: Shinjyo N 2013; cited from earlier work
[1] = CHO, CRC of the article alone, % of 3000 μM Mustard Oil, read-out: EMAX
[2] = CRC of the article alone, % of 3000 μM Mustard Oil
[3] = in presence of 0.1 μM CBD + THC
[4] = in presence of 0.3 μM CBD + THC

T1 sequence (O75762 whole entry): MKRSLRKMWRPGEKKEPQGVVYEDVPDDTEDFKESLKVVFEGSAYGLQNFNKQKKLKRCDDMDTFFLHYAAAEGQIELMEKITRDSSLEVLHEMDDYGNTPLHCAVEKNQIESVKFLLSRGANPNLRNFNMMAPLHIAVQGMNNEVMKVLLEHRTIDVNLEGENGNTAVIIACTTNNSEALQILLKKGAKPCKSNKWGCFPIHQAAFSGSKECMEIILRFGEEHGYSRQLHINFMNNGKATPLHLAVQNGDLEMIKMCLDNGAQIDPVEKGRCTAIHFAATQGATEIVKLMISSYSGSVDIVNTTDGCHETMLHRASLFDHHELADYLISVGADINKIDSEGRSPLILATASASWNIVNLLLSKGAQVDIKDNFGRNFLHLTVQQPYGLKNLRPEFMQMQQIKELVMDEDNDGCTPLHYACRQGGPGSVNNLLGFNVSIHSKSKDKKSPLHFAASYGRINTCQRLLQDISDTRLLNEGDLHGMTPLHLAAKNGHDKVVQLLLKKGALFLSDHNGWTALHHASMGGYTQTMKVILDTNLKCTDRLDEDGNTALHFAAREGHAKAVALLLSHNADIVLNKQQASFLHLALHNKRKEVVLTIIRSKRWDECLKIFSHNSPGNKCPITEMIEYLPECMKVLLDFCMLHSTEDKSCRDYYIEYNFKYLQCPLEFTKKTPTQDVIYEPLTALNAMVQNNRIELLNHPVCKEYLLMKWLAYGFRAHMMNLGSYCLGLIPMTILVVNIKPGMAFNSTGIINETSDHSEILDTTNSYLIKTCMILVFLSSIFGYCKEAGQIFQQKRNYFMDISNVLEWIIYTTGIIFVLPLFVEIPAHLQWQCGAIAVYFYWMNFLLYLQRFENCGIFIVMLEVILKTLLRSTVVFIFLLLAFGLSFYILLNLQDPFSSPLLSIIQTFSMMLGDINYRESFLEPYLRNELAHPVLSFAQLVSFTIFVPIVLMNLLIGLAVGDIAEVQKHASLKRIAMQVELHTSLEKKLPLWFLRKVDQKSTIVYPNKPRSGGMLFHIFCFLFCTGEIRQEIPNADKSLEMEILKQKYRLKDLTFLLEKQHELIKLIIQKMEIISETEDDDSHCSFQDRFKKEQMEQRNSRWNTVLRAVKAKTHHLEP
Sequence of CB1 receptors (P21554 whole entry): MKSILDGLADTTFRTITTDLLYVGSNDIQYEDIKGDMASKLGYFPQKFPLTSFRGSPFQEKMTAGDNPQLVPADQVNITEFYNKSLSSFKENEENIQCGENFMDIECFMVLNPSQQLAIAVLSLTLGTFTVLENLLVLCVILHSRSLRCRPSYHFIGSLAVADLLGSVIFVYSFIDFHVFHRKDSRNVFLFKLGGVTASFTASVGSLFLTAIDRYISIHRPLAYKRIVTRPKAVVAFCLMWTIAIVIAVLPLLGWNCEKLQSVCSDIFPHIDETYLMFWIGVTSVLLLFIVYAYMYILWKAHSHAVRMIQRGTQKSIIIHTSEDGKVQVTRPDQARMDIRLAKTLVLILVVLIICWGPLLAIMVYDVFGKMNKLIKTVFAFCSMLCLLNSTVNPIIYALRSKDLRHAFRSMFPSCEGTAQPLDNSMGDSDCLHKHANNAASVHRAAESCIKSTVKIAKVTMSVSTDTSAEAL
Sequence of CB2 receptors (P34972 whole entry): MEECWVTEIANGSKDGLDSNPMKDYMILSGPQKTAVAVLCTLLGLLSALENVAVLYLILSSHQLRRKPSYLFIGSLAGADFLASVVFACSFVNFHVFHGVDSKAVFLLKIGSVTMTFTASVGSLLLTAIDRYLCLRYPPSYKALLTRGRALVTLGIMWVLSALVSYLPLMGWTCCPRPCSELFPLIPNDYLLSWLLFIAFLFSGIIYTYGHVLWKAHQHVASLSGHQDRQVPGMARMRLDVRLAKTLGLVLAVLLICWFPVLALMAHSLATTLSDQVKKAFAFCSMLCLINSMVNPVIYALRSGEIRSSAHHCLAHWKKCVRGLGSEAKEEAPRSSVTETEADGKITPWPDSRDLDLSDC

SMILES: CCCCCc1cc(O)c2c(c1)OC(C)(CCC=C(C)C)C=C2 (stereo not shown) [CBC, cannabichromene]
- Agonist activity at TRPA1 receptors (in words) (human TRPA1 channel): weak partial agonist activity
- Emax (human TRPA1 channel; [1]): ~10%
- Emax (human TRPA1 channel; CHO, at near threshold activation by CBD+THC mixture (1 μM each), n=4, read-out: Efficacy (EMAX) of CBC): 16.2 ± 1.3%
- Emax (human TRPA1 channel; CHO, in presence of 0.1 μM CBD + THC, % of 3000 μM Mustard Oil, read-out: EMAX, CBC CRC): 10.1%
- Emax (human TRPA1 channel; CHO, in presence of 0.3 μM CBD + THC, % of 3000 μM Mustard Oil, read-out: EMAX, CBC CRC): 13.1%
- Emax (human TRPA1 channel; CHO, in presence of 1 μM CBD + THC, % of 3000 μM Mustard Oil, read-out: EMAX, CBC CRC): 17.1%
- Emax (human TRPA1 channel; CHO, in presence of 3 μM CBD + THC, % of 3000 μM Mustard Oil, read-out: EMAX, CBC CRC): 30.7%
- Emax (human TRPA1 channel; CHO, in presence of 10 μM CBD + THC, % of 3000 μM Mustard Oil, read-out: EMAX, CBC CRC): 53.2%
- Emax (human TRPA1 channel; CHO, in presence of 30 μM CBD + THC, % of 3000 μM Mustard Oil, read-out: EMAX, CBC CRC): 60.8%
- Emax (human TRPA1 channel; CHO, in presence of 100 μM CBD + THC, % of 3000 μM Mustard Oil, read-out: EMAX, CBC CRC): 58.5%
- Emax (human TRPA1 channel; CHO, in presence of 300 μM CBD + THC, % of 3000 μM Mustard Oil, read-out: EMAX, CBC CRC): 37.2%
- Hill Slope (human TRPA1 channel; CRC of the article alone): −0.96
- EMIN (human TRPA1 channel; [2]): 0.86%
- Emax (human TRPA1 channel; [2]): 10.3±1.9% and 10.31%
- Efficacy (EMAX) of CBC (human TRPA1 channel; at near threshold activation by CBD+THC mixture (1 μM each), n=4): 16±1%
- Hill Slope, CBC CRC (human TRPA1 channel; [3]): −3.56
- EMIN, CBC CRC (human TRPA1 channel; in presence of 0.1 μM CBD + THC, % of 3000 μM Mustard Oil): 0.92%
- EC50 (human TRPA1 channel; [3]): 54.5 µM
- Hill Slope, CBC CRC (human TRPA1 channel; [4]): −1.00
- EMIN, CBC CRC (human TRPA1 channel; in presence of 0.3 μM CBD + THC, % of 3000 μM Mustard Oil): 1.42%
- EC50 (human TRPA1 channel; [4]): 64.1 µM
- Hill Slope, CBC CRC (human TRPA1 channel; in presence of 1 μM CBD + THC): −1.00
- EMIN, CBC CRC (human TRPA1 channel; in presence of 1 μM CBD + THC, % of 3000 μM Mustard Oil): 2.40%
- EC50 (human TRPA1 channel; in presence of 1 μM CBD + THC): 26 µM
- EMIN, CBC CRC (human TRPA1 channel; in presence of 3 μM CBD + THC, % of 3000 μM Mustard Oil): 15.03%
- EMIN, CBC CRC (human TRPA1 channel; in presence of 10 μM CBD + THC, % of 3000 μM Mustard Oil): 42.93%
- EMIN, CBC CRC (human TRPA1 channel; in presence of 30 μM CBD + THC, % of 3000 μM Mustard Oil): 47.70%
- EMIN, CBC CRC (human TRPA1 channel; in presence of 100 μM CBD + THC, % of 3000 μM Mustard Oil): 37.89%
- EMIN, CBC CRC (human TRPA1 channel; in presence of 300 μM CBD + THC, % of 3000 μM Mustard Oil): 29.27%
- concentrations at which it binds to CB1 receptors (CB1 receptors): higher than 1 micromolar
- Ki (CB2 receptors): ~0.1 µM

SMILES: CO [Methanol]
- Emax (human TRPA1 channel; [1]): 3.97%
- EMIN (human TRPA1 channel; [2]): 0.95%

SMILES: C=CCN=C=S [Mustard Oil, Allyl isothiocyanate, reference compound]
- Emax at 3000 µM (human TRPA1 channel; CHO, CRC of the article alone, % of 3000 μM Mustard Oil): 100%
- Hill Slope (human TRPA1 channel; CRC of the article alone): −1.91
- EMIN (human TRPA1 channel; [2]): 1.01%

SMILES: N.N.N.N.N.N.N.N.N.N.N.N.N.N.[Cl-].[Cl-].[Cl-].[Cl-].[Cl-].[Cl-].[O-2].[O-2].[Ru+3].[Ru+3].[Ru+4] [Ruthenium Red, reference compound]
- Hill Slope (human TRPA1 channel; CRC of the article alone): 0.85
- EMIN (human TRPA1 channel; [2]): 0.00%
- Emax (human TRPA1 channel; [2]): 47.50%
- IC50 (human TRPA1 channel; inhibition of TRPA1 receptors, CRC 0-10 μM (footnote: IC50 is shown)): 1.79 µM
